Data set [1] relates to nitric oxide (NO) production in BV-2 microglial cells. As to the kind of experiment: LPS-stimulated accumulation of nitrite (NO metabolite) in BV-2 cells, Griess assay. Type of data set: cell-based, mouse. Particulars: for IC50: read-out: NO, concentration required for 50% inhibition, LPS-stimulated BV-2 cells, 16 hrs; for inhibition of LPS-stimulated accumulation of the NO metabolite, nitrite / selectivity (inhibits IL-1β but not production of NO, iNOS, COX-2): BV-2 cells; for inhibition of LPS-stimulated accumulation of the NO metabolite, nitrite: concentrations up to 33 μM; for selectivity (inhibits IL-1β but not production of NO, iNOS, COX-2): same concentration range.
Description: (§2) Glia cell-based assays of the concentration-dependent activity of the compounds were done as previously described (Hu T, Ralay Ranaivo et al., Current Alzheimer's Research 2005, 2:197-205; Mirzoeva. S, et al., J Med Chem 2002, 45:563-566; Ralay Ranaivo H, et al., 3 Neurosci 2006, 26:662-670). BV-2 mouse microglial cells were cultured for one day in multiwell plates and then treated in serum-free media for 16 his with either control buffer or the standard glial activating stimulus lipopolysaccharide (LPS, front Salmonella typhimurium; 100 ng/ml) in the presence of diluent or different concentrations of compounds. The accumulation of nitrite, the stable metabolite of nitric oxide (NO), was measured in V-2 conditioned media by the Griess assay as previously described (Hu W, Ralay Ranaivo et al., Current Alzheimer's Research 2005, 2:197-205; Mirzoeva S, et al, J Med Chem 2002, 45:563-566; Mirzoeva 5, et al., Brain Res 1999, 844:126434). Levels of IL-1β, TNFα, MCP-1 and IL-1β in cell lysates were measured by the Mesoscale Discovery system as per the manufacturer's instructions. Cell lysates were analyzed by Western blots as described (Mirzoeva 5, et al., J. Med Chem 2002, 45:563-566; Ralay Ranaivo H, et al J Neurosci 2006, 26:662-670) to determine the levels of inducible nitric oxide synthase (iNOS) and cyclooxygenase-2 (COX-2).

Data set [2] concerns QT interval in Lead II electrocardiogram, anesthetized guinea pigs. Nature of the data set: Cardiac QT interval prolongation assay in anesthetized guinea pigs. The conditions noted are these: 0.3 mg/kg iv, positive control. The method, then:
The QT interval studies are performed by evaluating compounds for effects on QT interval in Lead II electrocardiograms measured in anesthetized guinea pigs (Hirohashi et al., 1991, Arzneim.-Forsch./Drug Res 41:9-18), one of the species recommended in the FDA white paper. Vehicle or compound is administered orally at 15 mg/kg (dosing volume of 10 ml/kg) to groups of male guinea pigs (weighing 330-350 g), with 5 animals per group. […] Heart rate, arterial blood pressure, and QT intervals are measured at baseline, and at 15, 30, 45, and 60 min after compound administration. Sotalol administered iv at 0.3 mg/kg serves as the positive control compound. The QT intervals are corrected for changes in heart rate using both Bazetes and Fridericia's formulae. Any increase in QT interval values over baseline values exceeding the upper 95% confidence limit of the mean changes at the corresponding time point in the vehicle-treated control group for two consecutive observation times indicates significant QT interval prolongation in the individually treated animals.
The QT intervals (QTc) were corrected for changes in heart rate using both Bazett's and Fridericia's formulae.
The test substance was dissolved in 2% Tween 80 and administered by oral administration. The substance was treated at 15 mg/kg with a dosing volume of 10 ml/kg. Duncan Hartley derived guinea pigs provided by MDS Pharma Services—Taiwan Ltd were used. Sotalol was obtained from Sigma, USA.
Groups of guinea pigs (weighing 330-350 g) with 5 animals each were employed. The animals were anesthetized with urethane (1500 mg/kg, IV bolus injection in a volume of 5 ml/kg) and breathed spontaneously. Lead II ECG was obtained with subdermal needle electrodes and ECG signal conditioner. Heart rate was measured with a pulse rate tachometer. The carotid artery was cannulated with a catheter that was connected to a pressure transducer and a pressure processor for measurements of arterial blood pressure (BP). […] QTC intervals were obtained by correction for heart rate changes using Bazett's and Fridericia's formulae. Increase in QTc interval in individual treated guinea pigs that lies outside the upper limit of 95% confidence limits (mean±SD) of the changes for the vehicle-treated control at corresponding time points for two consecutive times is considered significant.

The subject of data set [3] is LPS-induced IL-1β production in BV-2 microglia cells. Nature of the data set: LPS-induced IL-1β production in BV-2 microglial cells. Particulars: for IC50: read-out: IL-1β, concentration required for 50% inhibition; for inhibition of LPS-induced increases of IL-1β: BV2 microglial cell line, concentration dependence.
Description: as §2
For data set [4], the system named is iNOS production in activated BV-2 cells. As to the kind of experiment: LPS-induced iNOS levels in activated BV-2 cells, Western blot. The class given is cell-based, mouse. (A western blot detects proteins with antibodies after separation by electrophoresis.)
Description: as §2
Data set [5] deals with COX-2 production in activated BV-2 cells. As to the kind of experiment: LPS-induced COX-2 levels in activated BV-2 cells, Western blot. Type of data set: cell-based, mouse.
Description: as §2
In data set [6] the test system is human Aβ infusion mouse model. As to the kind of experiment: Human Aβ infusion mouse model, hippocampal neuroinflammation and synaptic biochemical endpoints. Type of data set: in vivo. The conditions noted are these: hippocampus, Aβ-infused mice, oral compound. The protocol: The study design and treatment paradigm for intracerebroventricular (ICV) infusion of human oligomerie Aβ1-42 into the mouse will be as described previously (Craft et al., Neurobiol Aging 25:1283-1292, 2004b), except that compound administration will be by mouth. Female C57Bl/6 mice (Harlan) weighing 20-25 g (3-4 months old) will be housed in a pathogen free facility under an approximate 12 h/12 h dark and light cycle and they will have access ad libitum to food and water.
(§1) Once per day treatment will begin at day 21 after start of Aβ ICV infusion and continue for 14 days. Beginning at day 50 after start of Aβ ICV infusion, the Y maze test of spontaneous alternation will be used to evaluate hippocampus dependent spatial learning as described previously (Craf et al., J Mol. Neurosci. 24:115-122, 2004a). Briefly, each mouse will be placed in the “start” arm and then released to choose one of the two other arms. The mouse will be blocked from exiting the chosen arm for 30 s then they will be placed back in the start arm and released again to choose one of the two other arms. If the second choice is different from the first one, the mouse will be scored as alternating. Mice will be tested for 10 days with one trial per day, and a mean percent alternation will be calculated for each mouse. […] The brain will be removed and longitudinally bisected as described previously (Craft et al., Neurobiolo Aging 25:12834292, 2004b). […] The hippocampus will be dissected from the left half of the brain and snap-frozen for subsequent biochemical evaluation.
S100B levels in hippocampal supernatants will be measured by a empium-based ELISA essentially as previously described (Van Eldik and Griffin, Biochem Biophys Acta 1223:398-403, 1994). Synaptophysin levels in hippocampal supernatants will be quantified by ELISA following the procedure described previously (Craft at al, 20041, supra). PSD-95 levels will be determined by Western blots using anti-PSD-95 antibodies (1:100,000 dilution; Upstate Biotechnology) as described (Craft et al., 2004b).
It was previously shown that Aβ-induced neuroinflammation is an early event associated with the onset and progression of pathophysiology, and can be suppressed by an inhibitor of glial activation. Female C57Bl/6 mice (Harlan) weighing […] (3-4 months old) were housed in a pathogen free facility under an approximate 12 h/12 h dark and light cycle and had access ad libitum to food and water. All animal procedures were approved by the Northwestern Animal Care and Use Committee.

The subject of data set [7] is human Aβ infusion mouse model. As to the kind of experiment: Human Aβ infusion mouse model, Y maze behavioral assay. The class given is in vivo. Particulars: 1.25, 2.5, 5, and 10 mg/kg.
Description: as §1

[8] abbreviates: LPS-stimulated BV-2 cells, 16 hrs.

“Also recorded” adds a separate entry of the source. Where two headings read alike, the source gives them in different places. Where only a bound is given, the exact number is not on record here.

In the case of “4-Methyl-6-phenyl-3-(4-pyridin-2-yl)piperazin-1-yl)pyridazine [Compound 8]”, the IC50 in data set [1] is > 25 µM.

In the case of `CC(C)NCC(O)c1ccc(NS(C)(=O)=O)cc1` (stereo not shown) [sotalol, reference compound], the QTc interval prolongation result in data set [2] is given as “caused significant prolongation; also recorded: significant increase”.

In the case of “4-Methyl-6-phenyl-3-(4-pyridin-4-yl)piperazin-1-yl)pyridazine [Compound 9]”, the IC50 in data set [1] is > 25 µM.

Consider `Cc1cc(-c2ccccc2)nnc1N1CCN(C2CCCCC2)CC1` [Compound 10, 3-(4-cyclohexylpiperazin-1-yl)-4-methyl-6-phenylpyridazine], for which the IC50 in data set [3] (Mus musculus, BV-2, 16 h) was determined as 31.4 ± 4.9 µM.

With `Cc1cc(-c2ccccc2)nnc1N1CCN(c2cnccn2)CC1` [Compound 7], in data set [3] (setting [8]), the IC50 turned out to be 46.1 ± 23.3 µM.

For the compound “4-pyridyl-6-phenyl-3-(4-pyrimidin-2-ylpiperazin-1-yl)pyridazine [MW01-6-189WH]”, the “suppression of LPS-induced production of iNOS” value (“suppression … of iNOS” for short) in data set [4] was “does not suppress”. The “inhibition of LPS-stimulated accumulation of the NO metabolite, nitrite” value (from here on “inhibition … of the NO metabolite, nitrite”) in data set [1] is “not inhibited”. Moreover, in data set [5], the “suppression of LPS-induced production of COX-2” value (“suppression … of COX-2” for short) is recorded as “does not suppress”. Besides, in data set [3], the “inhibition of LPS-induced increases of IL-1β” value is given as “Concentration dependent inhibition”.

Regarding `Cc1cc(-c2ccccc2)c(N2CCN(c3ncccn3)CC2)nn1` [MW01-7-057WH, 6-methyl-4-phenyl-3-(4-pyrimidin-2-ylpiperazin-1-yl)pyridazine], in data set [6], the “loss of PSD-95” value is “did not block”, the loss of synaptophysin entry is given as “blocked”, the “up-regulation of IL-1β” value is reported as “did not block” and the “up-regulation of S100B” value is “blocked”. In addition, the “loss of PSD-95” value in data set [6] (listed as MW01-2-057WH) is reported as “no significant effect”. Besides, the “suppression … of iNOS” value in data set [4] was “does not suppress”. Moreover, in data set [1], the “selectivity (inhibits IL-1β but not production of NO, iNOS, COX-2)” value was “selective” and the “inhibition … of the NO metabolite, nitrite” value was “not inhibited”. The “suppression … of COX-2” value in data set [5] is given as “does not suppress”. In addition, the “inhibition of LPS-induced increases of IL-1β” value in data set [3] is reported as “Concentration dependent inhibition”. The “prevention of Y-maze behavioral deficit” value in data set [7] is reported as “significantly effective”.

Take `Clc1cc(-c2ccccc2)nnc1N1CCN(c2ncccn2)CC1` [MW01-6-127WH, 4-chloro-6-phenyl-3-(4-pyrimidin-2-ylpiperazin-1-yl)pyridazine]: the IC50 in data set [1] (Mus musculus) amounted to 19 ± 8 µM; in data set [3] (Mus musculus, BV-2, 16 h), 9.5 ± 4 µM.

As to `Cc1cc(-c2ccccc2)nnc1N1CCN(C)CC1` [Compound 11, 4-Methyl-3-(4-methylpiperazin-1-yl)-6-phenylpyridazine], in data set [3] (Mus musculus, BV-2, 16 h), the IC50 worked out at 48.9 ± 23.2 µM.

Regarding `CN1CCN(c2nnc(-c3ccccc3)cc2-c2ccncc2)CC1` [MW01-7-085WH, 3-(4-methylpiperazin-1-yl)-6-phenyl-4-(pyridin-4-yl)pyridazine], in data set [6], the “loss of PSD-95” value is on record as “prevented”, the loss of synaptophysin entry was “not as effective as MW01-2-151SRM”, the “up-regulation of IL-1β” value is reported as “blocked” and the “up-regulation of S100B” value is on record as “blocked”. Further, in data set [4], the “suppression … of iNOS” value is “does not suppress”. In addition, in data set [1], the “selectivity (inhibits IL-1β but not production of NO, iNOS, COX-2)” value is reported as “selective” and the “inhibition … of the NO metabolite, nitrite” value is listed as “not inhibited”. Further, the “suppression … of COX-2” value in data set [5] is “does not suppress”. In data set [3], the “inhibition of LPS-induced increases of IL-1β” value was “Concentration dependent inhibition”. Besides, in data set [7], the “prevention of Y-maze behavioral deficit” value was “trend toward preventing”.

Regarding `CC(C)Cc1cc(-c2ccccc2)nnc1N1CCN(c2ncccn2)CC1` [Compound 4], the values for the IC50 in data set [1] and in data set [3] (setting [8]) were 22 ± 3 µM and 6.1 ± 2.5 µM, respectively.

Consider “4-methyl-6-phenyl-3-(4-pyrimidin-2-ylpiperazin-1-yl)pyridazine [MW01-2-151SRM]”, for which the “suppression … of iNOS” value in data set [4] is “does not suppress”. Also, in data set [1], the “inhibition … of the NO metabolite, nitrite” value is “not inhibited”. In addition, the “suppression … of COX-2” value in data set [5] is on record as “does not suppress”. Also, the “inhibition of LPS-induced increases of IL-1β” value in data set [3] was “Concentration dependent inhibition”.

As for `c1ccc(Cc2cc(-c3ccccc3)nnc2N2CCN(c3ncccn3)CC2)cc1` [Compound 2], the IC50 in data set [1] is > 25 µM; in data set [3] (setting [8]), 5.3 ± 0.6 µM.

Take `c1ccc(-c2cc(-c3ccncc3)c(NCC3CC3)nn2)cc1` [MW01-7-084WH, N-(cyclopropylmethyl)-6-phenyl-4-(pyridin-4-yl)pyridazin-3-amine]: in data set [6], the “loss of PSD-95” value is given as “prevented”, the loss of synaptophysin result was “not as effective as MW01-2-151SRM”, the “up-regulation of IL-1β” value is given as “blocked” and the “up-regulation of S100B” value was “blocked”. In addition, the “suppression … of iNOS” value in data set [4] was “does not suppress”. Moreover, in data set [1], the “selectivity (inhibits IL-1β but not production of NO, iNOS, COX-2)” value is “selective” and the “inhibition … of the NO metabolite, nitrite” value was “not inhibited”. Besides, the “suppression … of COX-2” value in data set [5] was “does not suppress”. For the same compound, the “inhibition of LPS-induced increases of IL-1β” value in data set [3] is recorded as “Concentration dependent inhibition”. For the same compound, the “prevention of Y-maze behavioral deficit” value in data set [7] is “trend toward preventing”.

Take `c1ccc(-c2cc(N3CCCCC3)c(N3CCN(c4ncccn4)CC3)nn2)cc1` [MW01-7-107WH, 2-(4-(6-phenyl-4-(piperidin-1-yl)pyridazin-3-yl)piperazin-1-yl)pyrimidine]: the “suppression … of iNOS” value in data set [4] is given as “also inhibited”. Moreover, in data set [1], the “selectivity (inhibits IL-1β but not production of NO, iNOS, COX-2)” value is reported as “nonselective” and the “inhibition … of the NO metabolite, nitrite” value is given as “also inhibited”. The “suppression … of COX-2” value in data set [5] is given as “also inhibited”. Besides, in data set [3], the “inhibition of LPS-induced increases of IL-1β” value was “Concentration dependent inhibition”.

Take `c1ccc(-c2cc(-c3ccccc3)c(N3CCNCC3)nn2)cc1` [MW01-7-133WH, 4,6-diphenyl-3-piperazinylpyridazine]: the “suppression … of iNOS” value in data set [4] is “does not suppress”. In addition, in data set [1], the “selectivity (inhibits IL-1β but not production of NO, iNOS, COX-2)” value is on record as “selective” and the “inhibition … of the NO metabolite, nitrite” value was “not inhibited”. For the same compound, the “suppression … of COX-2” value in data set [5] is “does not suppress”. In data set [3], the “inhibition of LPS-induced increases of IL-1β” value was “Concentration dependent inhibition”.
